One experiment concerns the target CDC2L1 (Homo sapiens (Human), UniProt P21127). Nature of the experiment: KINOMEscan competitive binding assay. The settings on record: 10 uM.
A further experiment has as its system SN12C-RFP renal cells. Put plainly: Orthotopic renal cell carcinoma model. As to conditions: 100 mg/kg, po, qd; day 26 (vehicle 132±39 mg). Type of experiment: in vivo, mice. The text has this: (FIG. 10A) Real-time fluorescent imaging of SN12C-RFP renal cells orthotopically injected into […] of nu/nu mice. […] Drug treatments were started 7 days after orthotopic injection and tumor growth was visualized every 7 days by whole animal imaging. The images shown are of 4 mice in the vehicle and drug treated groups on day 26. Scale bar=10 mm. (FIG. 10B) At the end of the study, both the left tumor bearing kidney and right kidney were extracted and weighed.
Male Nu/Nu mice were anesthetized with an intraperitoneal injection of 50 mg/kg ketamine and […] medetomidine. A small incision was made along the left flank of the mice and the kidney was exposed. A 27-gauge insulin syringe was used for orthotopic injection of the SN12C-RFP cells. One million tumor cells in 20 μl of a 1:1 PBS:Matrigel mixture were injected into the lower pole of the kidney just below the renal subcapsule. […]
To test the effects of 6 on tumor growth after oral administration, human SN12C renal cells expressing RFP were injected into the kidney capsule of nude mice and tumors were allowed to develop for 7 days. […] Suppression of tumor growth was readily observed in those animals treated with 6 (FIG. 10A). On day 26, the kidneys were excised from these animals and the weight due to tumor was calculated by subtracting the weight of the normal kidney from the weight of the tumor-bearing kidney for each animal.

The target in another experiment is PKAC-alpha (Homo sapiens (Human), UniProt P17612). Nature of the experiment: KINOMEscan competitive binding assay. The settings on record: 10 uM.
The target of another experiment is SRC (Homo sapiens (Human), UniProt P12931). Put plainly: KINOMEscan competitive binding assay. As to conditions: 10 uM.
Another experiment has as its target DYRK1B (Homo sapiens (Human), UniProt Q9Y463). Nature of the experiment: KINOMEscan competitive binding assay. As to conditions: 10 uM.
Another experiment concerns neointimal hyperplasia. Put plainly: Mouse carotid artery wire-injury model of neointimal hyperplasia. Type of experiment: in vivo, mice. Here is the method: (FIG. 11A) Mouse carotid arteries were wire-injured as described in the Methods. […] (FIG. 11C) The corresponding percent stenosis (reflecting luminal narrowing) was calculated as described herein, *p<0.01. Error bars are reported as ±SEM. (FIG. 11D) PDGFRβ autophosphorylation in the injured arteries was measured on day 14, 4 h post-dose.
Restenosis is a process that commonly results from balloon angioplasty and/or stent placement resulting in eventual occlusion of arteries by a process described as neointimal hyperplasia (NIH). […] Therefore, the combination of PDGFRβ/B-RAF inhibition would be an ideal treatment for NIH. […] Mouse carotid arteries were wire-injured and treated the following day with 100 mg/kg, qd, via oral gavage. Representative sections of the injured arteries, stained with hematoxylin and eosin (FIG. 11A), were used to calculate the intimal/medial ratio—a measurement of the thickness of the inner two layers of the artery wall, which correlates with the size of the vessel lumen. […] As a pharmacodynamic endpoint, representative arteries were excised 4 h after the final dose and lysates were immunoblotted to detect activated PDGFRβ.

One compound from patent publication US9260417B2, “Therapeutic methods and compositions involving allosteric kinase inhibition” (AMITECH THERAPEUTIC SOLUTIONS, INC., priority 2010, dated 2016) can be followed below.

Chain of SRC (P12931 whole entry, looked up): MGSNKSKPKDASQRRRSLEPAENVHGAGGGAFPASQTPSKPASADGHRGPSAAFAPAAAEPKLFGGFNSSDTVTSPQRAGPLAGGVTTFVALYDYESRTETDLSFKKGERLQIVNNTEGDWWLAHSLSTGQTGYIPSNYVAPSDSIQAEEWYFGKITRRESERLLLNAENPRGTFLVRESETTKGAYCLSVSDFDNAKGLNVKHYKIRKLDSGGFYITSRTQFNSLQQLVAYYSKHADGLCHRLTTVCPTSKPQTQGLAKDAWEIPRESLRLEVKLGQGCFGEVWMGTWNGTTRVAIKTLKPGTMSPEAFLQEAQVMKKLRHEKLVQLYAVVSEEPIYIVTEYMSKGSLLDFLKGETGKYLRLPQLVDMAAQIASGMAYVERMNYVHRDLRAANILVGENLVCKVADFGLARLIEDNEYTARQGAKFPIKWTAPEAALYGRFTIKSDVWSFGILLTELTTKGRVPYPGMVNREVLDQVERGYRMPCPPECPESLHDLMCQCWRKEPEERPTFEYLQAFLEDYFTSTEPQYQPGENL
Chain of DYRK1B (Q9Y463 whole entry): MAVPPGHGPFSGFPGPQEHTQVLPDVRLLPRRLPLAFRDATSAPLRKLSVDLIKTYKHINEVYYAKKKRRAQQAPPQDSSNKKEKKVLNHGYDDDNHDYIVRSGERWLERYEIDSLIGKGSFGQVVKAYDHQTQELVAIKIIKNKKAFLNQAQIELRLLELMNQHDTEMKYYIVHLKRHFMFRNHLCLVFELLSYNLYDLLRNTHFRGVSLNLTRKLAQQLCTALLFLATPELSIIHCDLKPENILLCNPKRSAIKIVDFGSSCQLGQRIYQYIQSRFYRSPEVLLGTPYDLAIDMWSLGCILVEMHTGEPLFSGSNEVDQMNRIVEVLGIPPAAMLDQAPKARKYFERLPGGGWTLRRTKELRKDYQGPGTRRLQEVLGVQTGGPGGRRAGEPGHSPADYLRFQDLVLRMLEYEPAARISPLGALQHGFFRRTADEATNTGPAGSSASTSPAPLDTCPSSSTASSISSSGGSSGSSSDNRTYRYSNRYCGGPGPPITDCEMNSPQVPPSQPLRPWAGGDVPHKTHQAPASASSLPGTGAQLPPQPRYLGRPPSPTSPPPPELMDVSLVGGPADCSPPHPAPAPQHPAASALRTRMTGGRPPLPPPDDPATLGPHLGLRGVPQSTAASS
Chain of CDC2L1 (P21127 whole entry): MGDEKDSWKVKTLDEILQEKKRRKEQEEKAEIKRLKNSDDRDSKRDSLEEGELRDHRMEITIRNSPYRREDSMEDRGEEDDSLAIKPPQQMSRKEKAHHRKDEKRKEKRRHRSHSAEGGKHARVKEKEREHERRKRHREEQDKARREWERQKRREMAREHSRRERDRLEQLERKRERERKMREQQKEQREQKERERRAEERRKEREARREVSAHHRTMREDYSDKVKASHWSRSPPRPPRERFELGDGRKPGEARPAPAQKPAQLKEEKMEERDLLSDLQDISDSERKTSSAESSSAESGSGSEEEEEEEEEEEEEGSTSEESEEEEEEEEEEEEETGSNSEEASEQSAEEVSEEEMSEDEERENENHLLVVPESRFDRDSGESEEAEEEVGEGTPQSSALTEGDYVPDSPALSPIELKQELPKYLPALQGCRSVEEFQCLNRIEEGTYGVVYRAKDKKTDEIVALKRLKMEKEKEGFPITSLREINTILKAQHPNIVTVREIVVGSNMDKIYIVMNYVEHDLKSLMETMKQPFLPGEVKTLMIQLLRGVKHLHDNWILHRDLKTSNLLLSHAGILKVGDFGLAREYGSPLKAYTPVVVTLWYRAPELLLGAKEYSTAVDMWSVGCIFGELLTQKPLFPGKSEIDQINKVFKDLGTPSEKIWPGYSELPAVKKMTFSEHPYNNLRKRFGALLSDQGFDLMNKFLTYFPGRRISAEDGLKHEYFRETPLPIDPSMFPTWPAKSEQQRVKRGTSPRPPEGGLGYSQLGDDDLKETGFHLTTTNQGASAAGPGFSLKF

As for `CSc1nc(N)cc(Oc2ccc(-c3nnc(Nc4cccc(C(F)(F)F)c4)[nH]3)cc2)n1` [Compound 6], the “% Control” value on CDC2L1 is given as 70%; on PKAC-alpha it was 100%; at SRC, 90%; at DYRK1B it was 85%. The “average tumor burden (tumor-bearing kidney minus normal kidney weight)” value in the experiment on SN12C-RFP renal cells is 49 ± 18 mg. Moreover, the percent stenosis result with neointimal hyperplasia (100 mg/kg, qd, oral gavage, 14 days) is reported as “greatly reduced”. Moreover, the “PDGFRβ activation in injured arteries” value in the experiment with neointimal hyperplasia (4 h after the final dose) was “inhibited PDGFRβ activation”.
